Test results as given in ChEMBL document CHEMBL2311450, “Synthesis and antibacterial evaluation of novel 11,4″-disubstituted azithromycin analogs with greatly improved activity against erythromycin-resistant bacteria” (2013).
Converted amounts (≈) assume the structure as drawn.

Assays:
[1] = test system: Streptococcus pyogenes; assay: Antibacterial activity against erythromycin-susceptible Streptococcus pyogenes by broth microdilution method; format: functional
[2] = test system: Streptococcus pyogenes; assay: Antibacterial activity against erythromycin-resistant Streptococcus pyogenes RE clinical isolate by broth microdilution method; format: functional
[3] = test system: Staphylococcus aureus; assay: Antibacterial activity against erythromycin-susceptible Staphylococcus aureus ATCC 25923 by broth microdilution method; format: functional
[4] = test system: Streptococcus pneumoniae; assay: Antibacterial activity against erythromycin-resistant Streptococcus pneumoniae AB11 expressing erm and mef genes by broth microdilution method; format: functional
[5] = test system: Salmonella typhimurium; assay: Antibacterial activity against Salmonella typhimurium TA98 by broth microdilution method; format: functional, Salmonella enterica subsp. enterica serovar Typhimurium; details: Salmonella enterica
[6] = test system: Streptococcus pneumoniae; assay: Antibacterial activity against erythromycin-resistant Streptococcus pneumoniae A22072 expressing mef gene by broth microdilution method; format: functional
[7] = test system: Streptococcus pneumoniae; assay: Antibacterial activity against erythromycin-resistant Streptococcus pneumoniae B1 expressing erm gene by broth microdilution method; format: functional
[8] = test system: Streptococcus pneumoniae; assay: Antibacterial activity against erythromycin-susceptible Streptococcus pneumoniae ATCC 49619 by broth microdilution method; format: functional
[9] = test system: Salmonella typhimurium; assay: Antibacterial activity against Salmonella typhimurium TA102 by broth microdilution method; format: functional, Salmonella enterica subsp. enterica serovar Typhimurium; details: Salmonella enterica
[10] = test system: Staphylococcus aureus; assay: Antibacterial activity against methicillin-susceptible Staphylococcus aureus ATCC 29213 by broth microdilution method; format: functional
[11] = test system: Staphylococcus aureus; assay: Antibacterial activity against penicillin-resistant Staphylococcus aureus clinical isolate by broth microdilution method; format: functional

SMILES | MIC [1] | MIC [2] | MIC [3] | MIC [4] | MIC [5] | MIC [6] | MIC [7] | MIC [8] | MIC [9] | MIC [10] | MIC [11]
CC[C@H]1OC(=O)[C@H](C)[C@@H](O[C@H]2C[C@@](C)(OC)[C@@H](OC(=O)NNC(=O)c3ccc(Cl)cc3)[C@H](C)O2)[C@H](C)[C@@H](O[C@@H]2O[C@H](C)C[C@H](N(C)C)[C@H]2O)[C@](C)(O)C[C@@H](C)CN(C)[C@H](C)[C@@H](OC(=O)NCCc2ccccc2)[C@]1(C)O | 1 µg/mL (≈ 0.915 µM) | 32 µg/mL (≈ 29.3 µM) | 0.5 µg/mL (≈ 0.458 µM) | 8 µg/mL (≈ 7.32 µM) | 1 µg/mL (≈ 0.915 µM) | 0.12 µg/mL (≈ 0.11 µM) | 2 µg/mL (≈ 1.83 µM) | 0.03 µg/mL (≈ 0.0275 µM) | 8 µg/mL (≈ 7.32 µM) | 2 µg/mL (≈ 1.83 µM) | 8 µg/mL (≈ 7.32 µM)
CC[C@H]1OC(=O)[C@H](C)[C@@H](O[C@H]2C[C@@](C)(OC)[C@@H](OC(=O)NCCCCNC(=O)c3ccc(OC)cc3)[C@H](C)O2)[C@H](C)[C@@H](O[C@@H]2O[C@H](C)C[C@H](N(C)C)[C@H]2O)[C@](C)(O)C[C@@H](C)CN(C)[C@H](C)[C@@H](OC(=O)NCc2ccccc2)[C@]1(C)O | 8 µg/mL (≈ 7.08 µM) | 64 µg/mL (≈ 56.6 µM) | 0.5 µg/mL (≈ 0.442 µM) | 8 µg/mL (≈ 7.08 µM) | 2 µg/mL (≈ 1.77 µM) | 0.12 µg/mL (≈ 0.106 µM) | 2 µg/mL (≈ 1.77 µM) | 0.03 µg/mL (≈ 0.0265 µM) | 0.12 µg/mL (≈ 0.106 µM) | 4 µg/mL (≈ 3.54 µM) | 2 µg/mL (≈ 1.77 µM)
CC[C@H]1OC(=O)[C@H](C)[C@@H](O[C@H]2C[C@@](C)(OC)[C@@H](O)[C@H](C)O2)[C@H](C)[C@@H](O[C@@H]2O[C@H](C)C[C@H](N(C)C)[C@H]2O)[C@](C)(O)C[C@@H](C)CN(C)[C@H](C)[C@@H](O)[C@]1(C)O [AZITHROMYCIN] | 0.03 µg/mL (≈ 0.0401 µM) | 8 µg/mL (≈ 10.7 µM) | 0.25 µg/mL (≈ 0.334 µM) | 256 µg/mL (≈ 342 µM) | 0.5 µg/mL (≈ 0.668 µM) | 4 µg/mL (≈ 5.34 µM) | 128 µg/mL (≈ 171 µM) | 0.03 µg/mL (≈ 0.0401 µM) | 0.25 µg/mL (≈ 0.334 µM) | 2 µg/mL (≈ 2.67 µM) | 0.5 µg/mL (≈ 0.668 µM)
CC[C@H]1OC(=O)[C@H](C)[C@@H](O[C@H]2C[C@@](C)(OC)[C@@H](OC(=O)NCCCCNC(=O)c3ccc(OC)cc3)[C@H](C)O2)[C@H](C)[C@@H](O[C@@H]2O[C@H](C)C[C@H](N(C)C)[C@H]2O)[C@](C)(O)C[C@@H](C)CN(C)[C@H](C)[C@@H](OC(=O)NCCc2ccc(OC)cc2)[C@]1(C)O | 16 µg/mL (≈ 13.6 µM) | 64 µg/mL (≈ 54.5 µM) | 1 µg/mL (≈ 0.851 µM) | 8 µg/mL (≈ 6.81 µM) | 4 µg/mL (≈ 3.41 µM) | 0.25 µg/mL (≈ 0.213 µM) | 2 µg/mL (≈ 1.7 µM) | 0.06 µg/mL (≈ 0.0511 µM) | 0.5 µg/mL (≈ 0.426 µM) | 1 µg/mL (≈ 0.851 µM) | 8 µg/mL (≈ 6.81 µM)
CC[C@H]1OC(=O)[C@H](C)[C@@H](O[C@H]2C[C@@](C)(OC)[C@@H](OC(=O)NCCNC(=O)c3ccc(OC)c(OC)c3)[C@H](C)O2)[C@H](C)[C@@H](O[C@@H]2O[C@H](C)C[C@H](N(C)C)[C@H]2O)[C@](C)(O)C[C@@H](C)CN(C)[C@H](C)[C@@H](OC(=O)NCCc2ccccc2)[C@]1(C)O | 32 µg/mL (≈ 27.9 µM) | 64 µg/mL (≈ 55.8 µM) | 1 µg/mL (≈ 0.872 µM) | 16 µg/mL (≈ 14 µM) | 8 µg/mL (≈ 6.98 µM) | 0.5 µg/mL (≈ 0.436 µM) | 4 µg/mL (≈ 3.49 µM) | 0.06 µg/mL (≈ 0.0523 µM) | 2 µg/mL (≈ 1.74 µM) | 4 µg/mL (≈ 3.49 µM) | 4 µg/mL (≈ 3.49 µM)
CC[C@H]1OC(=O)[C@H](C)[C@@H](O[C@H]2C[C@@](C)(OC)[C@@H](O)[C@H](C)O2)[C@H](C)[C@@H](O[C@@H]2O[C@H](C)C[C@H](N(C)C)[C@H]2O)[C@](C)(OC)C[C@@H](C)C(=O)[C@H](C)[C@@H](O)[C@]1(C)O [CLARITHROMYCIN] | 0.03 µg/mL (≈ 0.0401 µM) | 4 µg/mL (≈ 5.35 µM) | 0.12 µg/mL (≈ 0.16 µM) | 128 µg/mL (≈ 171 µM) | 0.5 µg/mL (≈ 0.668 µM) | 4 µg/mL (≈ 5.35 µM) | 64 µg/mL (≈ 85.6 µM) | 0.03 µg/mL (≈ 0.0401 µM) | 0.25 µg/mL (≈ 0.334 µM) | 0.12 µg/mL (≈ 0.16 µM) | 0.03 µg/mL (≈ 0.0401 µM)
CC[C@H]1OC(=O)[C@H](C)[C@@H](O[C@H]2C[C@@](C)(OC)[C@@H](OC(=O)NNC(=O)c3ccccc3OC)[C@H](C)O2)[C@H](C)[C@@H](O[C@@H]2O[C@H](C)C[C@H](N(C)C)[C@H]2O)[C@](C)(O)C[C@@H](C)CN(C)[C@H](C)[C@@H](OC(=O)NCCc2ccccc2)[C@]1(C)O | 32 µg/mL (≈ 29.4 µM) | 64 µg/mL (≈ 58.8 µM) | 2 µg/mL (≈ 1.84 µM) | 16 µg/mL (≈ 14.7 µM) | 16 µg/mL (≈ 14.7 µM) | 2 µg/mL (≈ 1.84 µM) | 8 µg/mL (≈ 7.35 µM) | 0.06 µg/mL (≈ 0.0551 µM) | 8 µg/mL (≈ 7.35 µM) | 2 µg/mL (≈ 1.84 µM) | 4 µg/mL (≈ 3.68 µM)
CC[C@H]1OC(=O)[C@H](C)[C@@H](O[C@H]2C[C@@](C)(OC)[C@@H](OC(=O)NCCNC(=O)c3cc([N+](=O)[O-])cc([N+](=O)[O-])c3)[C@H](C)O2)[C@H](C)[C@@H](O[C@@H]2O[C@H](C)C[C@H](N(C)C)[C@H]2O)[C@](C)(O)C[C@@H](C)CN(C)[C@H](C)[C@@H](OC(=O)NCCc2ccccc2)[C@]1(C)O | 8 µg/mL (≈ 6.8 µM) | 64 µg/mL (≈ 54.4 µM) | 0.12 µg/mL (≈ 0.102 µM) | 2 µg/mL (≈ 1.7 µM) | 0.5 µg/mL (≈ 0.425 µM) | 0.06 µg/mL (≈ 0.051 µM) | 0.25 µg/mL (≈ 0.213 µM) | 0.06 µg/mL (≈ 0.051 µM) | 2 µg/mL (≈ 1.7 µM) | 4 µg/mL (≈ 3.4 µM) | 4 µg/mL (≈ 3.4 µM)
